Experiment [1] concerns E. coli with plasmid pGFP+luc*. The note with it: with increased ethanol concentration, 5 min, FIG. 5. The procedure:
(§1) One colony from a pure culture plate was inoculated in 5 ml of LB-medium with ampicillin (100 μg/ml) and grown at +37° C. in a shaker, 250 rpm, for about three hours. After that, the number of cells per milliliter was determined with flow cytometry by using fluorescent spherical latex particles as a reference. One million cells were then removed to an erlenmeyer with 50 ml of LB medium and ampicillin. The culture was grown over night in a shaker, 190 rpm, at room temperature to prevent the culture from growing into the stationary phase during the night. In the morning, the culture was transferred to and grown in a shaker, 330 rpm, until the stationary phase was reached or used after growth at +30° C. for about 1 h to study the influence of ethanol or serum complement as described below.
Ethanol (Aa, Primalco Oy) was diluted into pure water to obtain concentrations of 50, 45, 25, 10, 5, 1 and 0% of ethanol when 500 μl of said dilution was added to 500 μl of said culture in an eppendorf tube. The mixture was vortexed and incubated for 5 minutes before measuring fluorescence and luminescence. Live cells were again counted by plating and also by live/dead staining. […] After staining, cells are passed through a flow cytometer, with which dead and live cells can be differentiated and their proportion determined. […]

In experiment [2] the test system is E. coli with plasmid pGFP+luc*. The note with it: for death: incubation 5 min, 30° C., FIGS. 4 and 5 (plating and live/dead staining). The procedure:
as §1
Ethanol (Aa, Primalco Oy) was diluted into pure water to obtain concentrations of […], 25, 10, 5, 1 and 0% of ethanol when 500 μl of said dilution was added to 500 μl of said culture in an eppendorf tube. The mixture was vortexed and incubated for 5 minutes before measuring fluorescence and luminescence. Live cells were again counted by plating and also by live/dead staining. In the live/dead protocol used the stain cyto 9 stains all cells whereas propidium iodide stains only the dead cells. After staining, cells are passed through a flow cytometer, with which dead and live cells can be differentiated and their proportion determined. (Virta et al. (1998) Appl. Environ. Microbiol. 64: 515-519.)
The influence of serum complement on the said recombinant E. coli strain was studied using an incubation time of 90 min as described for a different recombinant E. coli strain used in Virta et al. (1998) Appl. Environ. Microbiol. 64: 515-519.
Samples for plating were diluted 10^2 to 10^7 fold with 150 mM NaCl and plated onto L agar plates (L broth containing 1.6% agar). Colonies were counted after overnight incubation at 37° C.

The test system of experiment [3] is E. coli with plasmid pGFP+luc*. The experiment is classed as cell-based, E. coli strain MC1061. As to conditions: 5 min. The procedure: Environ. Microbiol. 64: 515-519.
The measurements were done with a combined fluoro- and luminometer, Fluoroscan Ascent FL, provided by Labsystems Ltd. (Helsinki, Finland). Cell growth was simultaneously followed with a flow cytometer.
For the measurements, 100 μl of bacterial culture was pipetted into the microtiter plate wells. Fluorescence was measured using 485 nm for excitation and 510 nm for emission. Measuring time was 20 ms. After the fluorescence measurement 100 μl of luciferin in 0.1 M citric acid-sodium citrate buffer (pH 5.0) was dispensed into the wells and the plate was shaken for two minutes (shaking diameter 1 mm, 1 020 rpm), after which luminescence was recorded with a measuring time of 1000 ms.

Read-outs that look alike come from different tables or passages of the source.

In the case of `CCO` [ethanol, Ethanol], the “percentage of live cells according to the live/dead staining” value in experiment [1] is recorded as “dramatically decreasing”. The death entry in experiment [2] (ethanol concentrations above 10%) is listed as “very pronounced significance”; in experiment [2] (ethanol concentrations below 5%) it was “more or less unsignificant”. Moreover, the “live cell count according to plate count” value in experiment [2] (with increased ethanol concentration, 5 min, FIG. 4) is “dramatically decreasing”. In addition, the fluorescence entry in experiment [3] (whatever the ethanol concentration (0-50%), FIG. 2) is on record as “essentially constant”. Moreover, the luminescence entry in experiment [3] (with increased ethanol concentration, FIG. 3) is given as “dropped dramatically”.

The values are drawn from patent US6866995B1, “Method to enable assessment of growth and death of micro-organisms” (priority 1999, dated 2005).
